The source of these data is patent US20250059179A1, “Heterocyclic Compounds and Methods of Use” (AMGEN INC., priority 2021, published 2025).

The subject of test [1] is Phosphorylation of ERK1/2 in A-427 cells. Description: Phospho-ERK1/2 MSD Assay. The conditions noted are these: Homo sapiens, A-427, 2 h, 2 h compound treatment, read-out: pERK (A427 cells) IC50. Type of test: cell-based. How it is done: A-427 (ATCC® HTB-53™) cells were cultured in RPMI 1640 Medium (ThermoFisher Scientific 11875093) containing 10% fetal bovine serum (ThermoFisher Scientific 16000044) and 1× penicillin-streptomycin-glutamine (ThermoFisher Scientific 10378016). Sixteen hours prior to compound treatment, A-427 cells were seeded in 96-well cell culture plates at a density of 25,000 cells/well and incubated at 37° C., 5% CO2. A compound dose-response titration was diluted in growth media, added to appropriate wells of a cell culture plate, and then incubated at 37° C., 5% CO2 for 2 h. Following compound treatment, cells were washed with ice-cold Dulbecco's phosphate-buffered saline, no Ca^2+ or Mg^2+ (ThermoFisher Scientific 14190144), and then lysed in RIPA buffer (50 mM Tris-HCl pH 7.5, 1% Igepal, 0.5% sodium deoxycholate, 150 mM NaCl, and 0.5% sodium dodecyl sulfate) containing protease inhibitors (Roche 4693132001) and phosphatase inhibitors (Roche 4906837001). Phosphorylation of ERK1/2 in compound-treated lysates was assayed using Phospho-ERK1/2 Whole Cell Lysate kits (Meso Scale Discovery K151DWD) according to the manufacturer's protocol. Assay plates were read on a Meso Scale Discovery Sector Imager 6000, and data were analyzed using a 4-parameter logistic model to calculate IC50 values.

The target of test [2] is His-tagged KRAS G12D protein (Homo sapiens, UniProt P01116, G12D). Description: KRAS G12D TR-FRET Assay.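 Also: europium anti-His antibody paired with streptavidin-d2 as FRET partners, initial 30 min incubation, then peptide 1 h and detection reagents 1 h, all at room temperature.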 The test is classed as binding. The settings on record: biotinylated KRPep-2d substrate, 10 μM GDP.
Sequence of His-tagged KRAS G12D protein (P01116 1-188 isoform P01116-2 G12D): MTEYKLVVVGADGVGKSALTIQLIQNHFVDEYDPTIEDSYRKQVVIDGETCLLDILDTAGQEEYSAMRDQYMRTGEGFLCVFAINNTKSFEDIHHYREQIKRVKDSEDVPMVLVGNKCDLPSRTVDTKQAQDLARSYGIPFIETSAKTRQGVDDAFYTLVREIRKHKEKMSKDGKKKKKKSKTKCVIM
Test [3] has as its target GDP-bound KRAS protein (aa 1-169), containing both G12D and C118A amino acid substitutions (Homo sapiens, UniProt P01116, C118A/G12D). The test can be described thus: KRAS G12D Coupled Nucleotide Exchange Assay.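 Also: IC50 obtained by fitting the AlphaScreen signal with a four-parameter logistic curve.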 Type of test: biochemical. The settings on record: 2 h compound pre-incubation; SOS-mediated nucleotide exchange, cRAF AlphaScreen readout.

Bounds are passed on as bounds.

Sequence of GDP-bound KRAS protein (aa 1-169), containing both G12D and C118A amino acid substitutions (P01116 1-169 isoform P01116-2 G12D/C118A): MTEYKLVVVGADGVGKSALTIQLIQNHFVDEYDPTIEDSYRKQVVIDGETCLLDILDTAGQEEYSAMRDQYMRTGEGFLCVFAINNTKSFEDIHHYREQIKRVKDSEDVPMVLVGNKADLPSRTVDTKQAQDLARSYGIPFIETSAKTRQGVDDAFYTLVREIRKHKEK

For `C=Cc1cc2c(N3CCNCC3)nc(OC[C@@H]3CCCN3C)nc2c(F)c1-c1cccc2sc(N)nc12` [Example 149, 4-(8-fluoro-2-(((S)-1-methylpyrrolidin-2-yl)methoxy)-4-(piperazin-1-yl)-6-vinylquinazolin-7-yl)benzo[d]thiazol-2-amine], the IC50 in test [1] was 6930 nM; in test [2], 121 nM. Also, in test [3], the “Avg 2 h Coupled Exchange IC50” value came out at 25 nM.
`Nc1nc2c(-c3cc4nc(OC[C@@]56CCCN5C[C@H](F)C6)nc(N5[C@@H]6CC[C@H]5CNC6)c4cc3F)ccc(F)c2s1` [Example 138, 4-(4-((1R,5S)-3,8-diazabicyclo[3.2.1]octan-8-yl)-6-fluoro-2-(((2R,7aS)-2-fluorotetrahydro-1H-pyrrolizin-7a(5H)-yl)methoxy)quinazolin-7-yl)-7-fluorobenzo[d]thiazol-2-amine]: the values for the IC50 in test [1] and in test [2] were 1700 nM and 30 nM, respectively. Moreover, the “Avg 2 h Coupled Exchange IC50” value in test [3] came to 11 nM.
On the same counts, the results for `Nc1nc2c(-c3c(Cl)cc4c(N5C[C@H]6C[C@@H](C5)N6)nc(OC[C@@]56CCCN5C[C@H](F)C6)nc4c3F)ccc(F)c2s1` [Example 6, 4-(4-((1R,5S)-3,6-diazabicyclo[3.1.1]heptan-3-yl)-6-chloro-8-fluoro-2-(((2R,7aS)-2-fluorotetrahydro-1H-pyrrolizin-7a(5H)-yl)methoxy)quinazolin-7-yl)-7-fluorobenzo[d] thiazol-2-amine] are 364 nM, 5 nM and 5 nM.
Consider `Nc1nc2c(-c3ccc4c(N5[C@@H]6CC[C@H]5CNC6)nc(OC[C@@]56CCCN5C[C@H](F)C6)nc4c3)ccc(F)c2s1` [Example 135, 4-(4-((1R,5S)-3,8-diazabicyclo[3.2.1]octan-8-yl)-2-(((2R,7aS)-2-fluorotetrahydro-1H-pyrrolizin-7a(5H)-yl)methoxy)quinazolin-7-yl)-7-fluorobenzo[d]thiazol-2-amine], for which the IC50 was above 10000 nM in test [1] and 207 nM in test [2]. Moreover, the “Avg 2 h Coupled Exchange IC50” value in test [3] was found to be 64 nM.
On the same counts, the results for `Nc1nc2c(-c3c(Cl)cc4c(N5[C@@H]6CC[C@H]5CNC6)nc(OC[C@@]56CCCN5C[C@H](F)C6)nc4c3F)ccc(F)c2s1` [Example 2, 4-(4-((1R,5S)-3,8-diazabicyclo[3.2.1]octan-8-yl)-6-chloro-8-fluoro-2-(((2R,7aS)-2-fluorotetrahydro-1H-pyrrolizin-7a(5H)-yl)methoxy)quinazolin-7-yl)-7-fluorobenzo[d] thiazol-2-amine] are 23 nM, 5 nM and 4 nM.
On the same counts, the results for `Nc1nc2c(-c3c(Cl)cc4c(N5[C@@H]6CC[C@H]5CNC6)nc(OC[C@]56CCCN5C[C@H](F)C6)nc4c3F)ccc(F)c2s1` [Example 123, 4-(4-((1R,5S)-3,8-diazabicyclo[3.2.1]octan-8-yl)-6-chloro-8-fluoro-2-(((2R,7aR)-2-fluorotetrahydro-1H-pyrrolizin-7a(5H)-yl)methoxy)quinazolin-7-yl)-7-fluorobenzo[d]thiazol-2-amine] are 69 nM, 5 nM and 6 nM.
On the same counts, the results for `Nc1nc2c(-c3c(Cl)cc4c(N5C[C@H]6CC[C@@H](C5)N6)nc(OC[C@]56CCCN5C[C@H](F)C6)nc4c3F)ccc(F)c2s1` [Example 136, 4-(4-((1R,5S)-3,8-diazabicyclo[3.2.1]octan-3-yl)-6-chloro-8-fluoro-2-(((2R,7aR)-2-fluorotetrahydro-1H-pyrrolizin-7a(5H)-yl)methoxy)quinazolin-7-yl)-7-fluorobenzo[d]thiazol-2-amine] are 33 nM, 1 nM and 1 nM.
Turning to `Nc1nc2c(-c3cc4nc(OC[C@@]56CCCN5C[C@H](F)C6)nc(N5C[C@H]6CC[C@@H](C5)N6)c4cc3F)ccc(F)c2s1` [Example 132, 4-(4-((1R,5S)-3,8-diazabicyclo[3.2.1]octan-3-yl)-6-fluoro-2-(((2R,7aS)-2-fluorotetrahydro-1H-pyrrolizin-7a(5H)-yl)methoxy)quinazolin-7-yl)-7-fluorobenzo[d]thiazol-2-amine], the IC50 in test [1] came out at 440 nM; in test [2], 3 nM. For the same compound, the “Avg 2 h Coupled Exchange IC50” value in test [3] is 4 nM.
Turning to `Nc1nc2c(-c3c(Cl)cc4c(N5CCNCC5)nc(OC[C@@]56CCCN5[C@@H](CO)CC6)nc4c3F)cccc2s1` [Example 51, ((3R,7aS)-7a-(((7-(2-aminobenzo[d]thiazol-4-yl)-6-chloro-8-fluoro-4-(piperazin-1-yl)quinazolin-2-yl)oxy)methyl)hexahydro-1H-pyrrolizin-3-yl)methanol], the IC50 worked out at 16700 nM in test [1] and 53 nM in test [2]. Moreover, the “Avg 2 h Coupled Exchange IC50” value in test [3] is 42 nM.
On the same counts, the results for `CN1CCC[C@H]1COc1nc(N2CCNC3CC32)c2cc(Cl)c(-c3cccc4sc(N)nc34)c(F)c2n1` (stereo partly drawn) [Example 20, 4-(4-(2,5-diazabicyclo[4.1.0]heptan-2-yl)-6-chloro-8-fluoro-2-(((S)-1-methylpyrrolidin-2-yl)methoxy)quinazolin-7-yl)benzo[d]thiazol-2-amine] are 2510 nM, 168 nM and 63 nM.
On the same counts, the results for `Nc1nc2c(-c3c(Cl)cc4c(N5[C@@H]6CNC[C@H]5COC6)nc(OCC56CCCN5CC(F)(F)C6)nc4c3F)ccc(F)c2s1` (stereo partly drawn) [Example 126, 4-(4-((1R,5S)-3-oxa-7,9-diazabicyclo[3.3.1]nonan-9-yl)-6-chloro-2-((2,2-difluorotetrahydro-1H-pyrrolizin-7a(5H)-yl)methoxy)-8-fluoroquinazolin-7-yl)-7-fluorobenzo[d]thiazol-2-amine] are 896 nM, 12 nM and 10 nM.
On the same counts, the results for `CN1CCCCC1CCOc1nc(N2CCNCC2)c2cc(Cl)c(-c3cccc4sc(N)nc34)c(F)c2n1` (stereo not drawn) [Example 60, 4-(6-chloro-8-fluoro-2-(2-(1-methylpiperidin-2-yl)ethoxy)-4-(piperazin-1-yl)quinazolin-7-yl)benzo[d] thiazol-2-amine] are above 25000 nM, 480 nM and 343 nM.
With `Nc1nc2c(-c3c(Cl)cc4c(N5CC6CC5CCN6)nc(OC[C@@]56CCCN5C[C@H](F)C6)nc4c3F)ccc(F)c2s1` (stereo partly drawn) [Example 34, 4-(4-(2,6-diazabicyclo[3.2.1]octan-6-yl)-6-chloro-8-fluoro-2-(((2R,7aS)-2-fluorotetrahydro-1H-pyrrolizin-7a(5H)-yl)methoxy)quinazolin-7-yl)-7-fluorobenzo[d] thiazol-2-amine], the IC50 in test [1] was determined as 3100 nM; in test [2] it was 11 nM. Also, the “Avg 2 h Coupled Exchange IC50” value in test [3] was 4 nM.
The compound `Nc1nc2c(-c3c(Cl)cc4c(N5CCNCC5)nc(OC[C@@H]5CCCN5CC(F)F)nc4c3F)cccc2s1` [Example 66, 4-(6-chloro-2-(((S)-1-(2,2-difluoroethyl)pyrrolidin-2-yl)methoxy)-8-fluoro-4-(piperazin-1-yl)quinazolin-7-yl)benzo[d] thiazol-2-amine] registered an IC50 in test [2] of 1620 nM. For the same compound, the “Avg 2 h Coupled Exchange IC50” value in test [3] is 549 nM.
In turn, `CC1=C(c2nc(OC[C@@H]3CCCN3C)nc3c(F)c(-c4cccc5sc(N)nc45)c(Cl)cc23)CCNC1` [Example 147, 4-(6-chloro-8-fluoro-4-(5-methyl-1,2,3,6-tetrahydropyridin-4-yl)-2-(((S)-1-methylpyrrolidin-2-yl)methoxy)quinazolin-7-yl)benzo[d]thiazol-2-amine] displayed an IC50 in test [2] of 11200 nM. The “Avg 2 h Coupled Exchange IC50” value in test [3] turned out to be 3550 nM.
The compound `Nc1nc2c(-c3ccc4c(N5C[C@H]6CC[C@@H](C5)N6)nc(OC[C@@]56CCCN5C[C@H](F)C6)nc4c3F)ccc(F)c2s1` [Example 140, 4-(4-((1R,5S)-3,8-diazabicyclo[3.2.1]octan-3-yl)-8-fluoro-2-(((2R,7aS)-2-fluorotetrahydro-1H-pyrrolizin-7a(5H)-yl)methoxy)quinazolin-7-yl)-7-fluorobenzo[d]thiazol-2-amine] returned an IC50 in test [2] of 12 nM. In addition, the “Avg 2 h Coupled Exchange IC50” value in test [3] stood at 3 nM.
On the same counts, the results for `CN1C[C@H](F)C[C@H]1COc1nc(N2CCCNC(=O)C2)c2cc(Cl)c(-c3ccc(F)c4sc(N)nc34)c(F)c2n1` [Example 19, 4-(7-(2-amino-7-fluorobenzo[d]thiazol-4-yl)-6-chloro-8-fluoro-2-(((2S,4R)-4-fluoro-1-methylpyrrolidin-2-yl)methoxy)quinazolin-4-yl)-1,4-diazepan-2-one] are 85 nM and 62 nM.
With `Nc1nc2c(-c3c(Cl)cc4c(N5CCNCC5)nc(OC[C@]56CCCN5C[C@H](F)C6)nc4c3F)cccc2s1` [Example 46, 4-(6-chloro-8-fluoro-2-(((2R,7aR)-2-fluorotetra-hydro-1H-pyrrolizin-7a(5H)-yl)methoxy)-4-(piperazin-1-yl)quinazolin-7-yl)benzo[d] thiazol-2-amine], the 50% inhibitory concentration (IC50) in test [1] stood at 3950 nM.
